Data as given in PubChem BioAssay AID2060885 (Molecular Pharmacology Branch, DTP, NCI, 2025).

Test system: NCI-H23 complex spheroids with HUVEC/MSC, viability
Assay: Anticancer human tumor NCI-H23 cell line growth inhibition [RAS]
Settings: for IC50: curve of first compound; for viability, T/C: stronger effect = lower value; active = viability on the fitted dose curve at most 10% of control; inactive = the rest
Text: RAS pathway inhibitors in Combinations in Complex Spheroids
A high-throughput screen of multi-cell type tumor spheroids was designed to identify active combinations of RAS pathway inhibitors and targeted small molecules. Complex spheroids include a stromal component modeled by human endothelial cells (HUVEC) and fibroblasts modeled by human mesenchymal stem cells (MSCs). The concentration ranges selected for each drug and investigational agent were based upon clinically achievable concentrations if the clinical Cmax of the agent was known.
Compounds. The drugs and investigational agents: abemaciclib (NSC768073), cobimetinib (NSC768068), divarasib (GDC6063, NSC841802), docetaxel (NSC628503), GDC-1971 (RLY-1971, NSC841576), gemcitabine (NSC613327), inavolisib (NSC800729), ipatasertib (NSC767898), KB-0742 (NSC834161), MRTX-1133 (NSC836407), osimertinib (NSC779217), RMC-4630 (NSC839698), RMC-6236 (NSC851965), RMC-6291 (NSC852671), Ro-3306 (NSC812927), sapanisertib (NSC764658), SN-38 (NSC673596), staurosporine (NSC755774), SY5609 (NSC837396), and tovorafenib (DAY101, NSC766906), were obtained from the National Cancer Institute (NCI) Developmental Therapeutics Program Chemical Repository. The FDA-approved anticancer drug set is available from the NCI Developmental Therapeutics Program. […] The stock solutions were prepared in dimethyl sulfoxide (DMSO, Sigma-Aldrich, St. Louis, MO, cat. D2650) at 800-fold the tested concentration and stored at -70 degrees C prior to their use. All drugs and investigational agents were tested over a range starting from a high concentration at or near the clinical Cmax and decreasing in half-log increments. If the clinical Cmax for an agent had not been determined, the highest concentration tested was 10 microM.
Cell Culture. All cells were maintained in an incubator at 37 degrees C and 5% CO2 with 95% humidity. The PDC lines were cultured according to standard operating procedures established by the NCI PDMR. All PDCs were thawed and cultured in Matrigel-coated flasks prepared with a working solution of 1X Ham's F-12 nutrient mix, without supplementation (Invitrogen, Waltham, MA, cat. 11765054), 100 U/mL penicillin-streptomycin (Invitrogen, cat. 15140122), and 2.5% Matrigel (Corning Inc., Corning, NY, cat. 354248) for the first three passages. The 362531-283-R-J2-PDC and 782815-120-R-J1-PDC lines were cultured in 6C/Colon 1B media, which includes advanced DMEM/F-12 (Thermo Fisher Scientific, cat. 12634028), 10 mM HEPES (Thermo Fisher Scientific, cat. 15630080), 1X GlutaMAX supplement (Thermo Fisher Scientific, cat. 35050061), 0.1 mg/mL primocin (InvivoGen, San Diego, CA, cat. ant-pm-2), 10% defined fetal bovine serum, heat inactivated (HyClone Laboratories Inc., Logan, UT, cat. SH30070.03HI), 50% L-WRN conditioned media (ATCC, cat. CRL-3276), 1.25 mM N-Acetyl-L-cysteine (Sigma-Aldrich, cat. A9165), 10 mM nicotinamide (Sigma-Aldrich, cat. N0636), 1X B-27 supplement (Thermo Fisher Scientific, cat. 17504044), 1X N-2 supplement (Thermo Fisher Scientific, cat. 17502048), 50 ng/mL human EGF (Thermo Fisher Scientific, cat. PHG0311), and 10 microM Y-27632 dihydrochloride (Tocris Bioscience, cat. 1254). The K12877-001-R-J1-PDC line was cultured in 6I media, which includes all 6C/Colon 1B media plus 10 ng/mL human FGF-10 (PeproTech, cat. 100-26), 1 ng/mL human FGF-2 (PeproTech, cat. 100-18B), 1 µM prostaglandin E2 (Tocris Bioscience, cat. 2296), […] hydrocortisone (Sigma-Aldrich, cat. H4001), and […] bovine insulin (Sigma-Aldrich, cat. I6634). The K86415-001-R-J1-PDC line was cultured in 6D media, which includes all 6C/Colon 1B media components minus the L-WRN conditioned media. The 485176-168-R4-J1-PDC was cultured in PANC media, which includes all 6C/Colon 1B media plus 100 ng/mL human FGF-10 (PeproTech, cat. 100-26), 500 nM SB-431542 (Selleckchem, cat. S1067), and 10 nM gastrin (Tocris Bioscience, cat. 3006). […]

[1] = second compound 0.000949 µM, first compound 0.00316 µM
[2] = second compound 0.000949 µM, first compound 0.01 µM
[3] = second compound 0.000949 µM, first compound 0.0316 µM
[4] = second compound 0.000949 µM, first compound 0.1 µM
[5] = second compound 0.000949 µM, first compound 0.316 µM
[6] = second compound 0.000949 µM, first compound 1 µM
[7] = second compound 0.003 µM, first compound 0.00316 µM
[8] = second compound 0.003 µM, first compound 0.01 µM
[9] = second compound 0.003 µM, first compound 0.0316 µM
[10] = second compound 0.003 µM, first compound 0.1 µM
[11] = second compound 0.003 µM, first compound 0.316 µM
[12] = second compound 0.003 µM, first compound 1 µM
[13] = second compound 0.00949 µM, first compound 0.00316 µM
[14] = second compound 0.00949 µM, first compound 0.01 µM
[15] = second compound 0.00949 µM, first compound 0.0316 µM
[16] = second compound 0.00949 µM, first compound 0.1 µM
[17] = second compound 0.00949 µM, first compound 0.316 µM
[18] = second compound 0.00949 µM, first compound 1 µM
[19] = second compound 0.03 µM, first compound 0.00316 µM
[20] = second compound 0.03 µM, first compound 0.01 µM
[21] = second compound 0.03 µM, first compound 0.0316 µM
[22] = second compound 0.03 µM, first compound 0.1 µM
[23] = second compound 0.03 µM, first compound 0.316 µM
[24] = second compound 0.03 µM, first compound 1 µM
[25] = second compound 0.0949 µM, first compound 0.00316 µM
[26] = second compound 0.0949 µM, first compound 0.01 µM
[27] = second compound 0.0949 µM, first compound 0.0316 µM
[28] = second compound 0.0949 µM, first compound 0.1 µM
[29] = second compound 0.0949 µM, first compound 0.316 µM
[30] = second compound 0.0949 µM, first compound 1 µM
[31] = second compound 0.3 µM, first compound 0.00316 µM
[32] = second compound 0.3 µM, first compound 0.01 µM
[33] = second compound 0.3 µM, first compound 0.0316 µM
[34] = second compound 0.3 µM, first compound 0.1 µM
[35] = second compound 0.3 µM, first compound 0.316 µM
[36] = second compound 0.3 µM, first compound 1 µM

Nc1ccn(C2OC(CO)C(O)C2(F)F)c(=O)n1 (stereo unspecified) + CCn1c(-c2cc(N3CCN(C)CC3)cnc2C(C)OC)c2c3cc(ccc31)-c1csc(n1)CC(NC(=O)C1CC1C)C(=O)N1CCCC(N1)C(=O)OCC(C)(C)C2
active: viability, T/C [2] 2.1% | viability, T/C [3] 2.03% | viability, T/C [4] 1.87% | viability, T/C [5] 1.82% | viability, T/C [6] 1.3% | viability, T/C [8] 1.96% | viability, T/C [9] 1.42% | viability, T/C [10] 1.52% | viability, T/C [11] 2.04% | viability, T/C [12] 1.24% | viability, T/C [14] 1.87% | viability, T/C [15] 2.05% | viability, T/C [16] 1.74% | viability, T/C [17] 2.15% | viability, T/C [18] 2.22% | viability, T/C [20] 2.82% | viability, T/C [21] 2.27% | viability, T/C [22] 2.33% | viability, T/C [23] 1.56% | viability, T/C [24] 1.99% | viability, T/C [26] 3.4% | viability, T/C [27] 3.37% | viability, T/C [28] 2.4% | viability, T/C [29] 2.14% | viability, T/C [30] 2.59% | viability, T/C [32] 5.87% | viability, T/C [33] 3.63% | viability, T/C [34] 3.14% | viability, T/C [35] 2.91% | viability, T/C [36] 3.48%
< 3.16 nM: IC50 (second compound 0.000949 µM) | IC50 (second compound 0.003 µM) | IC50 (second compound 0.00949 µM) | IC50 (second compound 0.03 µM) | IC50 (second compound 0.0949 µM) | IC50 (second compound 0.3 µM)
inactive: viability, T/C [1] 16.9% | viability, T/C [7] 12.9% | viability, T/C [13] 12.6% | viability, T/C [19] 12% | viability, T/C [25] 12.2% | viability, T/C [31] 15.5%

C=CC(=O)Nc1cc(Nc2nccc(-c3cn(C)c4ccccc34)n2)c(OC)cc1N(C)CCN(C)C + CCn1c(-c2cc(N3CCN(C)CC3)cnc2C(C)OC)c2c3cc(ccc31)-c1csc(n1)CC(NC(=O)C1CC1C)C(=O)N1CCCC(N1)C(=O)OCC(C)(C)C2
< 3.16 nM: IC50 (second compound 0.000949 µM) | IC50 (second compound 0.003 µM) | IC50 (second compound 0.00949 µM) | IC50 (second compound 0.03 µM) | IC50 (second compound 0.0949 µM) | IC50 (second compound 0.3 µM)
inactive: viability, T/C [1] 51.5% | viability, T/C [2] 45.7% | viability, T/C [3] 34.4% | viability, T/C [4] 50.4% | viability, T/C [5] 31.4% | viability, T/C [6] 27.6% | viability, T/C [7] 35.8% | viability, T/C [8] 32.6% | viability, T/C [9] 30.1% | viability, T/C [10] 29.8% | viability, T/C [11] 27.1% | viability, T/C [12] 19% | viability, T/C [13] 30.7% | viability, T/C [14] 27.9% | viability, T/C [15] 29.3% | viability, T/C [16] 25.4% | viability, T/C [17] 22.1% | viability, T/C [18] 15.6% | viability, T/C [19] 27.5% | viability, T/C [20] 23.6% | viability, T/C [21] 29.1% | viability, T/C [22] 25% | viability, T/C [23] 17.5% | viability, T/C [24] 15% | viability, T/C [25] 18.7% | viability, T/C [26] 19.6% | viability, T/C [27] 22.2% | viability, T/C [28] 16.4% | viability, T/C [29] 8.97% | viability, T/C [30] 12.2% | viability, T/C [31] 16.5% | viability, T/C [32] 18.1% | viability, T/C [33] 17.2% | viability, T/C [34] 12.3% | viability, T/C [35] 10.5% | viability, T/C [36] 11.8%

CC(Nc1ccc2c(c1)OCCn1cc(N3C(=O)OCC3C(F)F)nc1-2)C(N)=O (stereo unspecified) + CCn1c(-c2cc(N3CCN(C)CC3)cnc2C(C)OC)c2c3cc(ccc31)-c1csc(n1)CC(NC(=O)C1CC1C)C(=O)N1CCCC(N1)C(=O)OCC(C)(C)C2
< 31.6 nM: IC50 (second compound 0.000949 µM) | IC50 (second compound 0.003 µM) | IC50 (second compound 0.00949 µM) | IC50 (second compound 0.03 µM) | IC50 (second compound 0.0949 µM) | IC50 (second compound 0.3 µM)
inactive: viability, T/C [3] 38.9% | viability, T/C [4] 34.7% | viability, T/C [5] 29.4% | viability, T/C [6] 35.1% | viability, T/C (second compound 0.000949 µM, first compound 3.16 µM) 33.6% | viability, T/C (second compound 0.000949 µM, first compound 10 µM) 21.6% | viability, T/C [9] 34.9% | viability, T/C [10] 24.6% | viability, T/C [11] 25.3% | viability, T/C [12] 25.1% | viability, T/C (second compound 0.003 µM, first compound 3.16 µM) 23.1% | viability, T/C (second compound 0.003 µM, first compound 10 µM) 17.6% | viability, T/C [15] 31.1% | viability, T/C [16] 24.5% | viability, T/C [17] 21.1% | viability, T/C [18] 22.5% | viability, T/C (second compound 0.00949 µM, first compound 3.16 µM) 23.3% | viability, T/C (second compound 0.00949 µM, first compound 10 µM) 16.7% | viability, T/C [21] 25.5% | viability, T/C [22] 19.6% | viability, T/C [23] 19% | viability, T/C [24] 19.2% | viability, T/C (second compound 0.03 µM, first compound 3.16 µM) 13.9% | viability, T/C (second compound 0.03 µM, first compound 10 µM) 14.5% | viability, T/C [27] 16.9% | viability, T/C [28] 14.9% | viability, T/C [29] 13.6% | viability, T/C [30] 15.2% | viability, T/C (second compound 0.0949 µM, first compound 3.16 µM) 10% | viability, T/C (second compound 0.0949 µM, first compound 10 µM) 10.8% | viability, T/C [33] 14% | viability, T/C [34] 13.3% | viability, T/C [35] 12.8% | viability, T/C [36] 13% | viability, T/C (second compound 0.3 µM, first compound 3.16 µM) 11.9% | viability, T/C (second compound 0.3 µM, first compound 10 µM) 11.4%
